Source: patent publication US20030139391A1 (priority 2000, published 2003)

Tested on: Patients diagnosed with Alzheimer's Disease
Test: Adverse events and discontinuation in 5-month slow-titration trial
Assay type: in vivo, human
Procedure: Subjects in the Placebo group received 21 weeks (5 months) of placebo medication.
The safety of the drug was also monitored throughout the study. Blood samples for biochemistry and haematology and random urine sample for urinalysis were taken at each visit and at completion for all efficacy testing. Systolic and diastolic blood pressure were measured in the sitting position, pulse and vital signs were recorded at each visit.

COc1ccc2c3c1O[C@H]1C[C@@H](O)C=C[C@@]31CCN(C)C2 [GAL, galantamine]
Agitation: % of patients (8 mg/day): (15.0%)
Agitation: number of patients (8 mg/day): 21
Anorexia: % of patients (8 mg/day): (5.7%)
Anorexia: number of patients (8 mg/day): 8
Bradycardia: % of patients (8 mg/day): (3.6%)
Bradycardia: number of patients (8 mg/day): 5
Convulsions: number of patients (8 mg/day): 0
DC due to adverse event: % (8 mg/day): 6%
DC due to adverse event: N (8 mg/day): 9
DC due to inefficacy: % (8 mg/day): 1 (1%)
DC due to inefficacy: N (8 mg/day): 1 (1%)
Depression: % of patients (8 mg/day): (2.9%)
Depression: number of patients (8 mg/day): 4
Diarrhea: % of patients (8 mg/day): (5.0%)
Diarrhea: number of patients (8 mg/day): 7
Dizziness: % of patients (8 mg/day): (5.0%)
Dizziness: number of patients (8 mg/day): 7
Dyspepsia: % of patients (8 mg/day): (2.9%)
Dyspepsia: number of patients (8 mg/day): 4
Edema peripheral: % of patients (8 mg/day): (6.4%)
Edema peripheral: number of patients (8 mg/day): 9
Fall: % of patients (8 mg/day): (7.9%)
Fall: number of patients (8 mg/day): 11
Fatigue: % of patients (8 mg/day): (2.1%)
Fatigue: number of patients (8 mg/day): 3
Headache: % of patients (8 mg/day): (3.6%)
Headache: number of patients (8 mg/day): 5
Injury: % of patients (8 mg/day): (3.6%)
Injury: number of patients (8 mg/day): 5
Muscle weakness: % of patients (8 mg/day): (0.7%)
Muscle weakness: number of patients (8 mg/day): 1
Nausea: % of patients (8 mg/day): (5.7%)
Nausea: number of patients (8 mg/day): 8
Rhinitis: % of patients (8 mg/day): (6.4%)
Rhinitis: number of patients (8 mg/day): 9
Serious adverse event Abdominal pain: % (8 mg/day): (0.0%)
Serious adverse event Abdominal pain: number (8 mg/day): 0
Serious adverse event Agitation: % (8 mg/day): (1.4%)
Serious adverse event Agitation: number (8 mg/day): 2
Serious adverse event Asthenia: % (8 mg/day): (0.0%)
Serious adverse event Asthenia: number (8 mg/day): 0
Serious adverse event Basal cell carcinoma: % (8 mg/day): (0.0%)
Serious adverse event Basal cell carcinoma: number (8 mg/day): 0
Serious adverse event Breast neoplasm female: % (8 mg/day): (0.0%)
Serious adverse event Breast neoplasm female: number (8 mg/day): 0
Serious adverse event Cardiac failure: % (8 mg/day): (0.0%)
Serious adverse event Cardiac failure: number (8 mg/day): 0
Serious adverse event Dehydration: % (8 mg/day): (0.0%)
Serious adverse event Dehydration: number (8 mg/day): 0
Serious adverse event Diarrhea: % (8 mg/day): (0.0%)
Serious adverse event Diarrhea: number (8 mg/day): 0
Serious adverse event Dyspnea: % (8 mg/day): (0.0%)
Serious adverse event Dyspnea: number (8 mg/day): 0
Serious adverse event Fall: % (8 mg/day): (2.9%)
Serious adverse event Fall: number (8 mg/day): 4
Serious adverse event Gi haemorrhage: % (8 mg/day): (0.0%)
Serious adverse event Gi haemorrhage: number (8 mg/day): 0
Serious adverse event Injury: % (8 mg/day): (0.7%)
Serious adverse event Injury: number (8 mg/day): 1
Serious adverse event Myocardial infarction: % (8 mg/day): (2.1%)
Serious adverse event Myocardial infarction: number (8 mg/day): 3
Serious adverse event Nausea: % (8 mg/day): (0.0%)
Serious adverse event Nausea: number (8 mg/day): 0
Serious adverse event Pneumonia: % (8 mg/day): (0.7%)
Serious adverse event Pneumonia: number (8 mg/day): 1
Serious adverse event Sepsis: % (8 mg/day): (0.0%)
Serious adverse event Sepsis: number (8 mg/day): 0
Serious adverse event Surgical intervention: % (8 mg/day): (0.0%)
Serious adverse event Surgical intervention: number (8 mg/day): 0
Serious adverse event Syncope: % (8 mg/day): (0.7%)
Serious adverse event Syncope: number (8 mg/day): 1
Serious adverse event Thrombophlebitis deep: % (8 mg/day): (0.0%)
Serious adverse event Thrombophlebitis deep: number (8 mg/day): 0
Serious adverse event Transient ischemic attack: % (8 mg/day): (0.7%)
Serious adverse event Transient ischemic attack: number (8 mg/day): 1
Serious adverse event Urinary tracq infection: % (8 mg/day): (0.7%)
Serious adverse event Urinary tracq infection: number (8 mg/day): 1
Serious adverse event Vomiting: % (8 mg/day): (0.0%)
Serious adverse event Vomiting: number (8 mg/day): 0
Syncope: % of patients (8 mg/day): (1.4%)
Syncope: number of patients (8 mg/day): 2
Total discontinued (DC): % (8 mg/day): 23%
Total discontinued (DC): N (8 mg/day): 32
Total patients with any SAE: % (8 mg/day): (10.0%)
Total patients with any SAE: number (8 mg/day): 14
Urinary tract infection: % of patients (8 mg/day): (7.9%)
Urinary tract infection: number of patients (8 mg/day): 11
Vomiting: % of patients (8 mg/day): (3.6%)
Vomiting: number of patients (8 mg/day): 5
Weight decrease: % of patients (8 mg/day): (1.4%)
Weight decrease: number of patients (8 mg/day): 2
Agitation: % of patients (16 mg/day): (10.0%)
Agitation: number of patients (16 mg/day): 28
Anorexia: % of patients (16 mg/day): (6.5%)
Anorexia: number of patients (16 mg/day): 18
Bradycardia: % of patients (16 mg/day): (2.5%)
Bradycardia: number of patients (16 mg/day): 7
Convulsions: number of patients (16 mg/day): 0
DC due to adverse event: % (16 mg/day): 7%
DC due to adverse event: N (16 mg/day): 19
DC due to inefficacy: N (16 mg/day): 0
Depression: % of patients (16 mg/day): (8.6%)
Depression: number of patients (16 mg/day): 24
Diarrhea: % of patients (16 mg/day): (12.2%)
Diarrhea: number of patients (16 mg/day): 34
Dizziness: % of patients (16 mg/day): (5.4%)
Dizziness: number of patients (16 mg/day): 15
Dyspepsia: % of patients (16 mg/day): (4.7%)
Dyspepsia: number of patients (16 mg/day): 13
Edema peripheral: % of patients (16 mg/day): (2.9%)
Edema peripheral: number of patients (16 mg/day): 8
Fall: % of patients (16 mg/day): (5.05%)
Fall: number of patients (16 mg/day): 14
Fatigue: % of patients (16 mg/day): (3.6%)
Fatigue: number of patients (16 mg/day): 10
Headache: % of patients (16 mg/day): (6.8%)
Headache: number of patients (16 mg/day): 19
Injury: % of patients (16 mg/day): (4.3%)
Injury: number of patients (16 mg/day): 12
Muscle weakness: % of patients (16 mg/day): (1.1%)
Muscle weakness: number of patients (16 mg/day): 3
Nausea: % of patients (16 mg/day): (13.3%)
Nausea: number of patients (16 mg/day): 37
Rhinitis: % of patients (16 mg/day): (3.2%)
Rhinitis: number of patients (16 mg/day): 9
Serious adverse event Abdominal pain: % (16 mg/day): (0.7%)
Serious adverse event Abdominal pain: number (16 mg/day): 2
Serious adverse event Agitation: % (16 mg/day): (0.4%)
Serious adverse event Agitation: number (16 mg/day): 1
Serious adverse event Asthenia: % (16 mg/day): (0.7%)
Serious adverse event Asthenia: number (16 mg/day): 2
Serious adverse event Basal cell carcinoma: % (16 mg/day): (0.0%)
Serious adverse event Basal cell carcinoma: number (16 mg/day): 0
Serious adverse event Breast neoplasm female: % (16 mg/day): (0.0%)
Serious adverse event Breast neoplasm female: number (16 mg/day): 0
Serious adverse event Cardiac failure: % (16 mg/day): (1.1%)
